Assay results published in US20250197369A1, “NOVEL HETEROCYCLIC INHIBITOR FOR HISTONE DEACETYLASE, AND PHARMACEUTICAL COMPOSITION COMPRISING SAME” (SOOKMYUNG WOMEN'S UNIVERSITY INDUSTRY-ACADEMIC COOPERATION …, priority 2022, published 2025).
pIC50: −log10 of the molar value.

Tests used:
HDAC6 = HDAC6 (Homo sapiens (Human), UniProt Q9UBN7); experiment: HDAC6 inhibitory activity (fluorogenic HDAC substrate); type: biochemical; details: culture 30° C. for 1 hour
Method: (§1) 2×HDAC enzymes were dispensed in each well of the reaction plate except for the control well without HDAC enzyme, and buffer was dispensed in the control well without the enzyme. Using acoustic technology (Echo550, nanoliter range), compounds dissolved in 100% DMSO were added to the enzyme mixture, spun down, and pre-cultured at room temperature for 10 minutes. All reaction wells were placed with a 2× substrate mixture (fluorogenic HDAC substrate) to initiate the reaction and then spun down. Culture was performed at 30° C. for 1 hour for HDAC6 and 2 hours for HDAC8.
(§2) Afterwards, a developer was added along with trichostatin A to halt the reaction and develop fluorescence. Dynamics measurements were performed with Envision (Ex/Em=360/460 nm) for 20 minutes with 5-minute intervals, and values from endpoint reading were taken for analysis after the phenomenon reached a plateau.

HDAC8 = HDAC8 (Homo sapiens (Human), UniProt Q9BY41); experiment: HDAC8 inhibitory activity (fluorogenic HDAC substrate); type: biochemical; details: culture 30° C. for 2 hours
Sequence of HDAC8 (Q9BY41 whole entry, species assumed): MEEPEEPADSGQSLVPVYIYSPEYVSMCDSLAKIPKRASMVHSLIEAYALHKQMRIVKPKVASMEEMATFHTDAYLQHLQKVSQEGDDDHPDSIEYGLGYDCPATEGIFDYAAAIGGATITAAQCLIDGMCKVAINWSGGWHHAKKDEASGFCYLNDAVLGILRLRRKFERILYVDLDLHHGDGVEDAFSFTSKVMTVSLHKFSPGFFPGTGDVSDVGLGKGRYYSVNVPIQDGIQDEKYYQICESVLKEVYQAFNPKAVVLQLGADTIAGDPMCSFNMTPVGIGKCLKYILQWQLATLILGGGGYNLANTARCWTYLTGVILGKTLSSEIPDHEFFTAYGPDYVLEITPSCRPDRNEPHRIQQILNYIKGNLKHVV
Method: as §1, §2

MS (in mouse) = type: in vitro ADME; set-up: unit not given here
MS (in human) = type: in vitro ADME; set-up: unit not given here

Sequence of HDAC6 (Q9UBN7 whole entry): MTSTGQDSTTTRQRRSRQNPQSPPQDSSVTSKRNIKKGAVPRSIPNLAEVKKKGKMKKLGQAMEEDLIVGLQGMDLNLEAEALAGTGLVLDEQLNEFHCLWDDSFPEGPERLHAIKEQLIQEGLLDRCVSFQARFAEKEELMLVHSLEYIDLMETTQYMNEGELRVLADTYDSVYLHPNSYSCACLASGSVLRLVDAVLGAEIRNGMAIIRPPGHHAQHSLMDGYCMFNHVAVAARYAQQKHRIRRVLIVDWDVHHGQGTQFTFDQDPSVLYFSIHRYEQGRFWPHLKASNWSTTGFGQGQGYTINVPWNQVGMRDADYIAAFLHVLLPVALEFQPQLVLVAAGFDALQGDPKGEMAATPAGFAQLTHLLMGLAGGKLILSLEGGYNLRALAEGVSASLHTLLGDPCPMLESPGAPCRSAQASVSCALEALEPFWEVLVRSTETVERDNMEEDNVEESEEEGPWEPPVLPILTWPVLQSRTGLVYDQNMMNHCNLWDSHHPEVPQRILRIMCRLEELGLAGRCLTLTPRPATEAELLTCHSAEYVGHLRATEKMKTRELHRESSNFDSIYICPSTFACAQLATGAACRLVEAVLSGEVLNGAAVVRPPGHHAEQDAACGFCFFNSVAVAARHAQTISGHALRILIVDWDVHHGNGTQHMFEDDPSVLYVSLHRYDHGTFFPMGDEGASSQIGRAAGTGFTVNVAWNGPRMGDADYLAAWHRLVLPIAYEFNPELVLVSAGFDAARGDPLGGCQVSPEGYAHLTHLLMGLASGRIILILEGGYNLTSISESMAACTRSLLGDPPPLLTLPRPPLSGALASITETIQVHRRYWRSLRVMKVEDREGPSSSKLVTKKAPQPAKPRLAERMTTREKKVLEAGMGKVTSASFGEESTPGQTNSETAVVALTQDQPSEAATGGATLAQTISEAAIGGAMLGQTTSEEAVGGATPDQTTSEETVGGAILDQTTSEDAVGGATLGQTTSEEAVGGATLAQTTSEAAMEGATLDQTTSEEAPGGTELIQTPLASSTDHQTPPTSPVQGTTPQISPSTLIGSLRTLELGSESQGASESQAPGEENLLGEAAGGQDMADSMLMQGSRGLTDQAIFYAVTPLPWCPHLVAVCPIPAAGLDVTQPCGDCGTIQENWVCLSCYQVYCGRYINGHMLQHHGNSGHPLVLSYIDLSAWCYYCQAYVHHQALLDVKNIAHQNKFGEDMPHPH

Row | SMILES | pIC50 (HDAC6) | pIC50 (HDAC8) | MS (in mouse) (MS (in mouse)) | MS (in human) (MS (in human))
1 | COc1ccc(Cn2cc3ccc(C(=O)NO)cc3n2)cc1 [Compound 51, 2-(4-Methoxybenzyl)-2H-indazole-6-carboxylic acid hydroxyamide] | 8.27 | 6.12 | 98.6 | 76.7
2 | Cc1ccc(Cn2cc3ccc(C(=O)NO)cc3n2)cc1 [Compound 52, 2-(4-Methylbenzyl)-2H-indazole-6-carboxylic acid hydroxyamide] | 8.13 | 6.16 | – | –
3 | O=C(NO)c1ccc2cn(Cc3ccc(F)cc3)nc2c1 [Compound 53, 2-(4-Fluorobenzyl)-2H-indazole-6-carboxylic acid hydroxyamide] | 8.23 | 6.03 | 71.3 | 85.9
4 | O=C(NO)c1ccc2cn(Cc3cccc(OC(F)(F)F)c3)nc2c1 [Compound 56, 2-(3-Trifluoromethoxybenzyl)-2H-indazole-6-carboxylic acid hydroxyamide] | 8.36 | 5.99 | – | –
5 | O=C(NO)c1ccc2cn(Cc3ccc(OC(F)(F)F)cc3)nc2c1 [Compound 57, 2-(4-Trifluoromethoxybenzyl)-2H-indazole-6-carboxylic acid hydroxyamide] | 8.26 | 5.97 | – | –
6 | COc1ccc(CCn2cc3ccc(C(=O)NO)cc3n2)cc1 [Compound 60, 2-(2-4-Methoxyphenylethyl)-2H-indazole-6-carboxylic acid hydroxyamide] | 8.33 | 5.96 | – | –
7 | CC(C)c1ccc(Cn2cc3ccc(C(=O)NO)cc3n2)cc1 [Compound 64, 2-(4-Isopropylbenzyl)-2H-indazole-6-carboxylic acid hydroxyamide] | 7.53 | 5.54 | – | –
8 | O=C(NO)c1ccc2cn(CCc3ccc(F)cc3)nc2c1 [Compound 65, 2-(2-4-Fluorophenylethyl)-2H-indazole-6-carboxylic acid hydroxyamide] | 8.17 | 5.82 | – | –
9 | O=C(NO)c1ccc2cn(Cc3cccc(OCc4ccccc4)c3)nc2c1 [Compound 71, 2-(3-Benzyloxybenzyl)-2H-indazole-6-carboxylic acid hydroxyamide] | 7.87 | 5.67 | – | –
10 | O=C(NO)c1ccc2cn(Cc3cccc(Oc4ccccc4)c3)nc2c1 [Compound 73, 2-(3-Phenoxybenzyl)-2H-indazole-6-carboxylic acid hydroxyamide] | 7.64 | 5.70 | – | –
11 | O=C(NO)c1cc2nn(Cc3ccccc3)cc2cc1F [Compound 88, 2-Benzyl-5-fluoro-2H-indazole-6-carboxylic acid hydroxyamide] | 7.13 | 5.42 | – | –
12 | O=C(NO)c1cc2nn(Cc3cccc(Cl)c3)cc2cc1F [Compound 89, 2-(3-chlorobenzyl)-5-fluoro-2H-indazole-6-carboxylic acid hydroxyamide] | 7.52 | 5.62 | – | –
13 | COc1cccc(Cn2cc3cc(F)c(C(=O)NO)cc3n2)c1 [Compound 90, 2-(3-Methoxybenzyl)-5-fluoro-2H-indazole-6-carboxylic acid hydroxyamide] | 7.12 | 5.55 | – | –

Now those with a higher pIC50 (HDAC6), led by results:

Row | pIC50 (HDAC6) | pIC50 (HDAC8) | MS (in mouse) (MS (in mouse)) | MS (in human) (MS (in human)) | SMILES
14 | 8.59 | 5.88 | 79.3 | 97.6 | O=C(NO)c1ccc2cn(Cc3ccccc3)nc2c1 [Compound 50, 2-Benzyl-2H-indazole-6-carboxylic acid hydroxyamide]
15 | 8.57 | 6.11 | 40.8 | 49.3 | O=C(NO)c1ccc2cn(Cc3ccc(Cl)cc3)nc2c1 [Compound 54, 2-(4-Chlorobenzyl)-2H-indazole-6-carboxylic acid hydroxyamide]
16 | 8.47 | 6.23 | – | – | O=C(NO)c1ccc2cn(Cc3ccc(Br)cc3)nc2c1 [Compound 55, 2-(4-Bromobenzyl)-2H-indazole-6-carboxylic acid hydroxyamide]
17 | 8.38 | 6.06 | – | – | O=C(NO)c1ccc2cn(Cc3ccc4ccccc4c3)nc2c1 [Compound 58, 2-Naphthalen-2-ylmethyl-2H-indazole-6-carboxylic acid hydroxyamide]
18 | 8.40 | 5.93 | – | – | O=C(NO)c1ccc2cn(CCc3ccccc3)nc2c1 [Compound 59, 2-Phenethyl-2H-indazole-6-carboxylic acid hydroxyamide]
19 | 8.41 | 6.06 | – | – | O=C(NO)c1ccc2cn(Cc3cc(F)cc(F)c3)nc2c1 [Compound 61, 2-(3,5-Difluorobenzyl)-2H-indazole-6-carboxylic acid hydroxyamide]
20 | 8.39 | 6.30 | – | – | O=C(NO)c1ccc2cn(Cc3ccc(OC(F)F)cc3)nc2c1 [Compound 62, 2-(4-Difluoromethoxybenzyl)-2H-indazole-6-carboxylic acid hydroxyamide]
21 | 8.44 | 5.89 | – | – | O=C(NO)c1ccc2cn(Cc3ccc(-c4ccccc4)cc3)nc2c1 [Compound 63, 2-Biphenyl-4-ylmethyl-2H-indazole-6-carboxylic acid hydroxyamide]
22 | 8.74 | 5.95 | – | – | O=C(NO)c1ccc2cn(Cc3cccc(F)c3)nc2c1 [Compound 66, 2-(3-Fluorobenzyl)-2H-indazole-6-carboxylic acid hydroxyamide]
23 | 8.89 | 5.08 | – | – | O=C(NO)c1ccc2cn(Cc3cccc(Cl)c3)nc2c1 [Compound 67, 2-(3-Chlorobenzyl)-2H-indazole-6-carboxylic acid hydroxyamide]
24 | 8.48 | 6.13 | – | – | O=C(NO)c1ccc2cn(Cc3cccc(C(F)(F)F)c3)nc2c1 [Compound 68, 2-(3-Trifluoromethylbenzyl)-2H-indazole-6-carboxylic acid hydroxyamide]
25 | 8.52 | 6.22 | – | – | O=C(NO)c1ccc2cn(Cc3ccc(C(F)(F)F)cc3)nc2c1 [Compound 69, 2-(4-Trifluoromethylbenzyl)-2H-indazole-6-carboxylic acid hydroxyamide]
26 | 8.74 | 6.01 | – | – | COc1cccc(Cn2cc3ccc(C(=O)NO)cc3n2)c1 [Compound 70, 2-(3-Methoxybenzyl)-2H-indazole-6-carboxylic acid hydroxyamide]
27 | 8.42 | 6.09 | – | – | COc1cc(Cn2cc3ccc(C(=O)NO)cc3n2)cc(OC)c1 [Compound 72, 2-(3,5-Dimethoxybenzyl)-2H-indazole-6-carboxylic acid hydroxyamide]
